According to PMC3038857, “Using Nuclear Receptor Activity to Stratify Hepatocarcinogens” (PLoS ONE, 2011):
Where two headings read alike, the source gives them in different places.

Legend:
[1] = system: Rat Liver; conditions: ref ToxRefDB, cited from earlier work
[2] = system: Rat Liver; conditions: ref ToxRefDB, cited from earlier work; remark: listed apart in the source
[3] = system: Rat Liver; conditions: ref ToxRefDB, cited from earlier work; remark: listed apart in the source
[4] = system: Mouse Liver; conditions: liver, ref ToxRefDB, cited from earlier work
[5] = biological target: T1, PXR (NR1I2) (Homo sapiens, UniProt O75469); experiment: ATG_PXRE_CIS: Factorial reporter gene assay (HepG2); format: cell-based; parameters: endogenous in cells; host or cells: HepG2
T1 sequence (O75469 1-434): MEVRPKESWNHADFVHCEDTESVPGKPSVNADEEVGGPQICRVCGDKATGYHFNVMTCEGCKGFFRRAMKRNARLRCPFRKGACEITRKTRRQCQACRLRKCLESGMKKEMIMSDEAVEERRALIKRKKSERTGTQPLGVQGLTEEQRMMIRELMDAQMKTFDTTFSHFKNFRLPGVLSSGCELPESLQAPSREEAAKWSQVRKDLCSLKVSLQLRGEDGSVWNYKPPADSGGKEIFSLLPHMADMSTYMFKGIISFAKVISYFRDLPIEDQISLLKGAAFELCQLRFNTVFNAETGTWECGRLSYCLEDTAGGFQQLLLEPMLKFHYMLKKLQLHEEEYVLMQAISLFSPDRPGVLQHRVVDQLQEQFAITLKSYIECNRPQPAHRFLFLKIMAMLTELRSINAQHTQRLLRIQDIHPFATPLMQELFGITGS
Protocol: A multiple reporter transcription unit (MRTU) library consisting of 48 transcription factor binding sites was transfected into the HepG2 human liver hepatoma cell line. In addition to the cis-acting reporter genes (CIS), a modification of the approach was used to generate a trans-system (TRANS) with a mammalian one-hybrid assay consisting of an additional 25 MRTU library reporting the activity of nuclear receptor super-family members. […] These assays were performed by Attagene Inc. (Morrisville NC) under contract to EPA.
In addition to the cis-acting reporter genes (CIS), a modification of the approach was used to generate a trans-system (TRANS) with a mammalian one-hybrid assay consisting of an additional 25 MRTU library reporting the activity of nuclear receptor super-family members. […] Chemicals were then tested in the CIS and TRANS assays at seven concentrations starting at the MTC and followed by three-fold serial dilutions. These assays were performed by Attagene Inc. (Morrisville NC) under contract to EPA. Detailed description of the methods, data and analysis methods for this dataset will be presented in a separate publication.

[6] = system: CYP2B6; experiment: CLZD_CYP2B6: Change in expression of CYP2B6 (primary human hepatocytes); format: cell-based; conditions: 24 hr
Protocol: This is a collection of multiplexed gene expression assays focused on Phase I and II xenobiotic metabolizing enzymes and transporters. Human primary cell cultures were treated with chemicals at 5 concentrations (0.004-40 [drawing 42] M) for 6, 24 and 48 hr. Concentration- and time-response profiles of chemicals were measured by the expression of key nuclear receptor target genes, activities of CYP1A enzymes (EROD), and cell morphology. Fourteen gene targets were monitored by quantitative nuclease protection assay including: six representative cytochrome P-450 genes, four hepatic transporters, three Phase II conjugating enzymes, and one endogenous metabolism gene involved in cholesterol synthesis. The target genes associated with nuclear receptor pathways are as follows: [drawing 43] and [drawing 44] with [drawing 45]; [drawing 46] , [drawing 47] , [drawing 48] , [drawing 49] , [drawing 50] and [drawing 51] with [drawing 52]; [drawing 53] , [drawing 54] , [drawing 55] and [drawing 56] with [drawing 57]; [drawing 58] with [drawing 59]; and [drawing 60] with [drawing 61] . Assays were run in primary human hepatocyte cultures by CellzDirect Invitrogen Inc. (Durham, NC), in collaboration with EPA.
Multiplexed Gene Expression in Human Primary Hepatocytes: This is a collection of multiplexed gene expression assays focused on Phase I and II metabolic enzymes and transporters. […] Fourteen gene targets were monitored by quantitative nuclease protection assay: six representative cytochrome P450 genes, four hepatic transporters, three Phase II conjugating enzymes, and one endogenous metabolism gene involved in cholesterol synthesis. Cells were exposed at 5 concentrations (0.004-40 µM) for 6, 24 or 48 hr. Gene targets are sentinels for five nuclear receptor signaling pathways: AhR, CAR, PXR, FXR, and PPARα. All gene are associated with nuclear receptor pathways: CYP1A1 and CYP1A2 with AHR; ABCB1, ABCG2, CYP2B6, CYP2C9, CYP2C19 and UGT1A1 with CAR; CYP3A4, GSTA2, SLCO1B1 and SULT2A1 with PXR; HMGCS2 with PPARA; and ABCB11 with FXR. […] Detailed description of the methods, data and analysis methods for this dataset will be presented in a separate publication.

[7] = rat chronic study, liver, preneoplastic lesion, coded 6 / 0, code not explained in the table
[8] = rat chronic study, liver, neoplastic lesion, coded 6 / 0, code not explained in the table
[9] = rat chronic study, liver, any lesion, coded 6 / 0, code not explained in the table
[10] = mouse chronic study, any lesion, coded 6 / Inf, code not explained in the table
[11] = rat chronic study, liver, coded 6 / 0, code not explained in table
[12] = mouse chronic study, coded 6 / Inf, code not explained in table

SMILES | CHR_Rat_Liver_2_PreneoplasticLesion [1, 7] | CHR_Rat_Liver_3_NeoplasticLesion [2, 8] | CHR_Rat_Liver_1_AnyLesion [3, 9] | CHR_Rat_Liver_2_PreneoplasticLesion [1, 11] | CHR_Rat_Liver_3_NeoplasticLesion [2, 11] | CHR_Rat_Liver_1_AnyLesion [3, 11] | further results
O=C(O)COc1ccc(Cl)cc1Cl [Dataset S3 row 2] | 0 | 0 | 6 | – | – | – | –
O=C(O)CCCOc1ccc(Cl)cc1Cl [Dataset S3 row 3] | 0 | 0 | 6 | – | – | – | CHR_Mouse_Liver_1_AnyLesion [4, 10]: 6
C/C(=N\C#N)N(C)Cc1ccc(Cl)nc1 [Dataset S3 row 11] | 0 | 0 | 6 | – | – | – | CHR_Mouse_Liver_1_AnyLesion [4, 10]: 6
CCOCN(C(=O)CCl)c1c(C)cccc1CC [Dataset S3 row 12] | 6 | 6 | 6 | – | – | – | –
CSC(=O)c1cccc2nnsc12 [Dataset S3 row 13] | 0 | 0 | 6 | – | – | – | CHR_Mouse_Liver_1_AnyLesion [4, 10]: 6
CCc1cccc(CC)c1N(COC)C(=O)CCl [Dataset S3 row 15] | 0 | 0 | 6 | – | – | – | –
CNC(=O)ON=CC(C)(C)SC [Dataset S3 row 16] | 0 | 0 | 0 | – | – | – | –
CCNc1nc(NC(C)C)nc(SC)n1 [Dataset S3 row 17] | 6 | 6 | 6 | – | – | – | –
Clc1nc(Cl)nc(Nc2ccccc2Cl)n1 [Dataset S3 row 19] | 0 | 0 | 0 | – | – | – | –
COC(=O)NS(=O)(=O)c1ccc(N)cc1 [Dataset S3 row 20] | 0 | 0 | 0 | – | – | – | CHR_Mouse_Liver_1_AnyLesion [4, 10]: 6
CCNc1nc(Cl)nc(NC(C)C)n1 [Dataset S3 row 21] | 0 | 0 | 0 | – | – | – | –
COC=C(C(=O)OC)c1ccccc1Oc1cc(Oc2ccccc2C#N)ncn1 [Dataset S3 row 24] | 6 | 0 | 6 | – | – | – | –
CNC(=O)Oc1cccc2c1OC(C)(C)O2 [Dataset S3 row 25] | 0 | 0 | 0 | – | – | – | –
FC(F)C(F)(F)OCC(Cn1cncn1)c1ccc(Cl)cc1Cl (stereo not shown) [chemical 292] | – | – | – | 6 | 0 | 6 | –
c1ccc2[nH]c(-c3cscn3)nc2c1 [chemical 294] | – | – | – | 0 | 0 | 6 | –
N#C/N=C1\SCCN1Cc1ccc(Cl)nc1 [chemical 295] | – | – | – | 0 | 0 | 6 | CHR_Mouse_Liver_1_AnyLesion [4, 12]: 6
CN(C)C(=S)SSC(=S)N(C)C [chemical 302] | – | – | – | 6 | 0 | 6 | –
CCON=C(CC)C1=C(O)CC(c2c(C)cc(C)cc2C)CC1=O (stereo not shown) [chemical 303] | – | – | – | 6 | 0 | 6 | –

SMILES | CHR_Rat_Liver_2_PreneoplasticLesion [1, 7] | CHR_Rat_Liver_3_NeoplasticLesion [2, 8] | CHR_Rat_Liver_1_AnyLesion [3, 9] | CHR_Rat_Liver_2_PreneoplasticLesion [1, 11] | CHR_Rat_Liver_3_NeoplasticLesion [2, 11] | CHR_Rat_Liver_1_AnyLesion [3, 11] | further results
COC(=O)c1ccccc1S(=O)(=O)NC(=O)N(C)c1nc(C)nc(OC)n1 [chemical 308] | – | – | – | 0 | 0 | 0 | –
Oc1cc(Cl)ccc1Oc1ccc(Cl)cc1Cl [chemical 312] | – | – | – | 0 | 0 | 6 | –
CO/N=C(/C(=O)OC)c1ccccc1CON=C(C)c1cccc(C(F)(F)F)c1 [chemical 313] | – | – | – | 0 | 0 | 0 | CHR_Mouse_Liver_1_AnyLesion [4, 12]: 6
COc1cc(OC)nc(NC(=O)[N-]S(=O)(=O)c2ncccc2OCC(F)(F)F)n1.[Na+] [chemical 314] | – | – | – | 0 | 0 | 0 | –
CCCN(CCC)c1c([N+](=O)[O-])cc(C(F)(F)F)cc1[N+](=O)[O-] [chemical 316] | – | – | – | 0 | 0 | 0 | –
CC1(C)CCC(=Cc2ccc(Cl)cc2)C1(O)Cn1cncn1 (stereo not shown) [chemical 318] | – | – | – | 0 | 0 | 6 | CHR_Mouse_Liver_1_AnyLesion [4, 12]: 6
CCC(C)(NC(=O)c1cc(Cl)c(C)c(Cl)c1)C(=O)CCl (stereo not shown) [chemical 320] | – | – | – | 0 | 0 | 0 | –
CNC(=O)ON=C(SC)C(=O)N(C)C [r231] | – | – | – | – | – | – | CHR_Rat_Liver_2_PreneoplasticLesion ([1]; rat, chronic study): 0; CHR_Rat_Liver_3_NeoplasticLesion ([2]; rat, chronic study): 0; ATG_PXRE_CIS ([5]; HepG2): 4.481; CHR_Rat_Liver_1_AnyLesion ([3]; rat, chronic study): 0
CCCOC(=O)NCCCN(C)C.Cl [r257] | – | – | – | – | – | – | CHR_Rat_Liver_2_PreneoplasticLesion ([1]; rat, chronic study): 0; CHR_Rat_Liver_3_NeoplasticLesion ([2]; rat, chronic study): 0; CHR_Rat_Liver_1_AnyLesion ([3]; rat, chronic study): 0
CCC(=O)Nc1ccc(Cl)c(Cl)c1 [r258] | – | – | – | – | – | – | CHR_Rat_Liver_2_PreneoplasticLesion ([1]; rat, chronic study): 6; CHR_Rat_Liver_3_NeoplasticLesion ([2]; rat, chronic study): 0; ATG_PXRE_CIS ([5]; HepG2): 4.337; CHR_Rat_Liver_1_AnyLesion ([3]; rat, chronic study): 6
O=C(O)c1c(Cl)ccc2cc(Cl)cnc12 [r276] | – | – | – | – | – | – | CHR_Rat_Liver_2_PreneoplasticLesion ([1]; chronic study, rat liver): 0; CHR_Rat_Liver_3_NeoplasticLesion ([2]; chronic study, rat liver): 0; CHR_Rat_Liver_1_AnyLesion ([3]; chronic study, rat liver): 0
CCS(=O)(=O)c1cccnc1S(=O)(=O)NC(=O)Nc1nc(OC)cc(OC)n1 [r281] | – | – | – | – | – | – | CHR_Rat_Liver_2_PreneoplasticLesion ([1]; chronic study, rat liver): 6; CHR_Rat_Liver_3_NeoplasticLesion ([2]; chronic study, rat liver): 0; CHR_Rat_Liver_1_AnyLesion ([3]; chronic study, rat liver): 6
CNC(=O)N(C)c1nnc(C(C)(C)C)s1 [r293] | – | – | – | – | – | – | ATG_PXRE_CIS ([5]; HepG2 reporter): 4.357
COC(=O)c1ccc(CNS(C)(=O)=O)cc1S(=O)(=O)NC(=O)Nc1nc(OC)cc(OC)n1 [row 194] | – | – | – | – | – | – | CHR_Rat_Liver_2_PreneoplasticLesion ([1]; chronic rat study, liver): 0; CHR_Rat_Liver_3_NeoplasticLesion ([2]; chronic rat study, liver): 0; CHR_Rat_Liver_1_AnyLesion ([3]; chronic rat study, liver): 0; CHR_Mouse_Liver_1_AnyLesion ([4]; chronic mouse study): 6
CNC(=O)ON=C(C)SC [row 200] | – | – | – | – | – | – | CHR_Rat_Liver_2_PreneoplasticLesion ([1]; chronic rat study, liver): 0; CHR_Rat_Liver_3_NeoplasticLesion ([2]; chronic rat study, liver): 0; CHR_Rat_Liver_1_AnyLesion ([3]; chronic rat study, liver): 0
COCCO [row 203] | – | – | – | – | – | – | ATG_PXRE_CIS ([5]; HepG2): 4.602
CSc1nnc(C(C)(C)C)c(=O)n1N [row 209] | – | – | – | – | – | – | CHR_Rat_Liver_2_PreneoplasticLesion ([1]; chronic rat study, liver): 0; CHR_Rat_Liver_3_NeoplasticLesion ([2]; chronic rat study, liver): 0; CHR_Rat_Liver_1_AnyLesion ([3]; chronic rat study, liver): 0; CLZD_CYP2B6_24 [6]: 5.115
